From US20250114374A1, “BCL-2 INHIBITORS” (Newave Pharmaceutical Inc., priority 2021, published 2025)
Structures can show the parent of a compound that is named as a salt.

test system: RS4; 11 with G101V mutation; test: In vitro anti-proliferation assay (ATPlite luminescence) in BCL-2-dependent ALL cell line RS4;11 with G101V mutation; assay type: cell-based; conditions: Homo sapiens, RS4-11, 72 h; read-out: RS411-G101V IC50
How it was run: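 RS4;11 G101V cells at about 1×10^4 per well were exposed to a range of compound concentrations for about 72 h in medium with 10% FBS. Cellular ATP was measured by ATPlite luminescence after lysis, and IC50 was derived from the dose-response.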

| IC50 [nM] | Compound |
| --- | --- |
| 7 | COc1cc(CN2CCN(C3CC4(CCN(c5ccc(C(=O)NS(=O)(=O)c6cc7c(c([N+](=O)[O-])c6)N[C@H](C6CCOCC6)CO7)c(N6c7cc8cc[nH]c8nc7O[C@H]7COCC[C@@H]76)c5)CC4)C3)[C@H](c3ccccc3C)C2)cnc1N1CCOCC1 [Example 143, 4-(2-((R)-4-((5-methoxy-6-morpholinopyridin-3-yl)methyl)-2-(o-tolyl)piperazin-1-yl)-7-azaspiro[3.5]nonan-7-yl)-N-(((R)-5-nitro-3-(tetrahydro-2H-pyran-4-yl)-3,4-dihydro-2H-benzo[b][1,4]oxazin-7-yl)sulfonyl)-2-((5aS,9aR)-6,7,9,9a-tetrahydro-1H-pyrano[3,4-b]pyrrolo[3′,2′:5,6]pyrido[3,2-e][1,4]oxazin-5(5aH)-yl)benzamide] |
| 46.5 | CC(C)Oc1ccccc1[C@@H]1CN([C@@H]2CCCOC2)CCN1C1CC2(CCN(c3ccc(C(=O)NS(=O)(=O)c4cc5c(c([N+](=O)[O-])c4)N[C@H](C4CCOCC4)CO5)c(N4c5cc6cc[nH]c6nc5O[C@H]5COCC[C@@H]54)c3)CC2)C1 [Example 174, 4-(2-((R)-2-(2-isopropoxyphenyl)-4-((R)-tetrahydro-2H-pyran-3-yl)piperazin-1-yl)-7-azaspiro[3.5]nonan-7-yl)-N-(((R)-5-nitro-3-(tetrahydro-2H-pyran-4-yl)-3,4-dihydro-2H-benzo[b][1,4]oxazin-7-yl)sulfonyl)-2-((5aS,9aR)-6,7,9,9a-tetrahydro-1H-pyrano[3,4-b]pyrrolo[3′,2′:5,6]pyrido[3,2-e][1,4]oxazin-5(5aH)-yl)benzamide] |
| 73.3 | COc1cc([C@H](C)N2CCN(C3CC4(CCN(c5ccc(C(=O)NS(=O)(=O)c6cc7c(c([N+](=O)[O-])c6)N[C@H](C6CCOCC6)CO7)c(N6c7cc8cc[nH]c8nc7O[C@H]7COCC[C@@H]76)c5)CC4)C3)[C@H](c3ccccc3C)C2)cnc1N1CCOC[C@@H]1C [Example 193, 4-(2-((R)-4-((S)-1-(5-methoxy-6-((S)-3-methylmorpholino)pyridin-3-yl)ethyl)-2-(o-tolyl)piperazin-1-yl)-7-azaspiro[3.5]nonan-7-yl)-N-(((R)-5-nitro-3-(tetrahydro-2H-pyran-4-yl)-3,4-dihydro-2H-benzo[b][1,4]oxazin-7-yl)sulfonyl)-2-((5aS,9aR)-6,7,9,9a-tetrahydro-1H-pyrano[3,4-b]pyrrolo[3′,2′:5,6]pyrido[3,2-e][1,4]oxazin-5(5aH)-yl)benzamide] |
| 261 | CC(C)Oc1ccccc1[C@@H]1CN([C@@H]2COc3c(F)cc(F)cc3C2)CCN1C1CC2(CCN(c3ccc(C(=O)NS(=O)(=O)c4cc5c(c([N+](=O)[O-])c4)N[C@H](C4CCOCC4)CO5)c(N4c5cc6cc[nH]c6nc5O[C@H]5COCC[C@@H]54)c3)CC2)C1 [Example 220, 4-(2-((R)-4-((S)-6,8-difluorochroman-3-yl)-2-(2-isopropoxyphenyl)piperazin-1-yl)-7-azaspiro[3.5]nonan-7-yl)-N-(((R)-5-nitro-3-(tetrahydro-2H-pyran-4-yl)-3,4-dihydro-2H-benzo[b][1,4]oxazin-7-yl)sulfonyl)-2-((5aS,9aR)-6,7,9,9a-tetrahydro-1H-pyrano[3,4-b]pyrrolo[3′,2′:5,6]pyrido[3,2-e][1,4]oxazin-5(5aH)-yl)benzamide] |

| Compound | IC50 [nM] |
| --- | --- |
| COc1cc(CN2CCN(C3CC4(CCN(c5ccc(C(=O)NS(=O)(=O)c6ccc(NCC7CCOCC7)c([N+](=O)[O-])c6)c(N6c7cc8cc[nH]c8nc7O[C@H]7COCC[C@@H]76)c5)CC4)C3)[C@@H](c3ccccc3OC(C)C)C2)cnc1N1CCOCC1 [Example 144, 4-(2-((S)-2-(2-isopropoxyphenyl)-4-((5-methoxy-6-morpholinopyridin-3-yl)methyl)piperazin-1-yl)-7-azaspiro[3.5]nonan-7-yl)-N-((3-nitro-4-(((tetrahydro-2H-pyran-4-yl)methyl)amino)phenyl)sulfonyl)-2-((5aS,9aR)-6,7,9,9a-tetrahydro-1H-pyrano[3,4-b]pyrrolo[3′,2′:5,6]pyrido[3,2-e][1,4]oxazin-5(5aH)-yl)benzamide] | 7.3 |

same assay, conditions: cellular anti-proliferative IC50, about 72 hours, medium with 10% FBS, ATPlite; hydrochloride; read-out: RS411-G101V IC50

| Compound | IC50 [nM] |
| --- | --- |
| Cc1ccccc1[C@@H]1CN(C2CCC(C)(O)CC2)CCN1C1CC2(CCN(c3ccc(C(=O)NS(=O)(=O)c4ccc(NCC5CCC(C)(O)CC5)c([N+](=O)[O-])c4)c(N4c5cc6cc[nH]c6nc5O[C@H]5COCC[C@@H]54)c3)CC2)C1 (stereo partly drawn) [Example 113, 2-[(3R,8S)-2,5-dioxa-9,15,17-triazatetracyclo[8.7.0.0^{3,8}.0^{12,16}]heptadeca-1(10),11,13,16-tetraen-9-yl]-4-{2-[(2R)-2-(2-methylphenyl)-4-[(1s,4s)-4-hydroxy-4-methylcyclohexyl]piperazin-1-yl]-7-azaspiro[3.5]nonan-7-yl}-N-[3-nitro-4-({[(1r,4r)-4-hydroxy-4-methylcyclohexyl]methyl}amino)benzenesulfonyl]benzamide hydrochloride] | 8.2 |

same assay, conditions: cellular anti-proliferative IC50, about 72 hours, medium with 10% FBS, ATPlite; read-out: RS411-G101V IC50

| Compound | IC50 [nM] |
| --- | --- |
| CC(C)Oc1ccccc1[C@@H]1CN([C@@H]2CCOc3c2ccc(F)c3F)CCN1C1CC2(CCN(c3ccc(C(=O)NS(=O)(=O)c4cc5c(c([N+](=O)[O-])c4)N[C@H](C4CCOCC4)CO5)c(N4c5cc6cc[nH]c6nc5O[C@H]5COCC[C@@H]54)c3)CC2)C1 [Example 212, 4-{2-[(2R)-4-[(4R)-7,8-difluoro-3,4-dihydro-2H-1-benzopyran-4-yl]-2-(2-isopropoxyphenyl)piperazin-1-yl]-7-azaspiro[3.5]nonan-7-yl}-2-[(3R,8S)-2,5-dioxa-9,15,17-triazatetracyclo[8.7.0.0^{3,8}.0^{12,16}]heptadeca-1(10),11,13,16-tetraen-9-yl]-N-[(3R)-5-nitro-3-(oxan-4-yl)-3,4-dihydro-2H-1,4-benzoxazin-7-ylsulfonyl]benzamide] | 33.5 |
| CC(C)c1ccccc1[C@H]1CN(Cc2ccc(F)c(F)c2)CCN1C1CC2(CCN(c3ccc(C(=O)NS(=O)(=O)c4ccc(NCC5CCOCC5)c([N+](=O)[O-])c4)c(N4c5cc6cc[nH]c6nc5O[C@H]5COCC[C@@H]54)c3)CC2)C1 [Example 166, 4-{2-[(2S)-4-[(3,4-difluorophenyl)methyl]-2-(2-isopropylphenyl)piperazin-1-yl]-7-azaspiro[3.5]nonan-7-yl}-2-[(3R,8S)-2,5-dioxa-9,15,17-triazatetracyclo[8.7.0.0^{3,8}.0^{12,16}]heptadeca-1(10),11,13,16-tetraen-9-yl]-N-{3-nitro-4-[(oxan-4-ylmethyl)amino]benzenesulfonyl}benzamide] | 585 |
| COc1cc(CN2CCN(C3CC4(CCN(c5ccc(C(=O)NS(=O)(=O)c6ccc(NCC7CCC(C)(O)CC7)c([N+](=O)[O-])c6)c(N6c7cc8cc[nH]c8nc7O[C@H]7COCC[C@@H]76)c5)CC4)C3)[C@H](c3ccccc3C)C2)cnc1N1CCOCC1 (stereo partly drawn) [Example 123, N-((4-((((1r,4r)-4-hydroxy-4-methylcyclohexyl)methyl)amino)-3-nitrophenyl)sulfonyl)-4-(2-((R)-4-((5-methoxy-6-morpholinopyridin-3-yl)methyl)-2-(o-tolyl)piperazin-1-yl)-7-azaspiro[3.5]nonan-7-yl)-2-((5aS,9aR)-6,7,9,9a-tetrahydro-1H-pyrano[3,4-b]pyrrolo[3′,2′:5,6]pyrido[3,2-e][1,4]oxazin-5(5aH)-yl)benzamide] | 2.9 |
